The values below are quoted from earlier work in US20100183726A1, “COMPOSITIONS AND METHODS FOR TREATING CANCER WITH DACARBAZINE NANOEMULSIONS” (priority 2006, published 2010).

In series [1] the test system is Cloudman S91 cells. Particulars: 100 μg/ml.
Series [2] concerns melanoma B16 cells.
For series [3], the system named is melanoma B16F10 cells. Particulars: 150 mg/kg; 14 days after inoculation; p<0.01 versus untreated controls.
Assay in series [4]: not given
The source holds these as a separate data set.

The test system of series [5] is metastatic melanoma.
Series [6] concerns B16 cells. Particulars: 200 μg/ml.
Where [7] appears, read: dacarbazine alone, meta-analysis of 14 studies, 1167 patients.

Molecules are shown by their SMILES. Where two headings read alike, the source gives them in different places.

Consider `NC(=O)c1nc[nH]c1N` [AIC, 5-aminoimidazol-me-4-carboxamide], for which, for the setting “after injection of dacarbazine”, the “time to maximal serum concentration” value is 15 min. In addition, the “time at which detectable after intravenous injection of dacarbazine” value (in vivo, iv) is 15 min.
As for `CN(C)N=Nc1[nH]cnc1C(N)=O` [dacarbazine, 5-(3,3-dimethyl-1-triazeno)imidazole-4-carboxamide], in series [1], the “highest induction of apoptosis” value was 22.2%. The increased survival time in series [2] (B16 cells implanted intraperitoneally) is reported as 29%. In series [2] (B16 cells implanted subcutaneously), the increased survival time is given as 43%. Also, the “inhibition of tumor growth” value in series [2] (intraperitoneal injection) is “did not inhibit tumor growth”. Moreover, the “T50% α value relative to typical dose” value (higher doses (850-1980 mg/m^2)) is listed as 3.5 fold. Where the note is “in vivo”, the “injected dose crossing the blood-brain barrier” value is recorded as 13%, the protein binding result is “binds weakly to proteins”, the “secretion in breast milk” value is “secreted in breast milk” and the volume of distribution result was “exceeds the water volume of the body”. Also, the bioavailable fraction (intravenously injected) is on record as 50-60%. Also, the “fraction of an oral dose absorbed” value (oral administration) was 14-23%. For the same compound, under “regardless of the dose injected”, the renal clearance entry is reported as “exceeds creatinine clearance”. In addition, the “number of metastatic pulmonary nodules” value in series [3] is listed as “significantly decreased”. Moreover, in series [4] (in vivo), the “patients developing constitutional symptoms (nausea, vomiting, occasionally diarrhea)” value is recorded as 90%. In addition, the cytopenia grade result in series [4] (white cell and platelet counts after injection) is given as “WHO grade 1 or rarely grade 2”. Further, the complete remission in series [5] (143 patients treated with dacarbazine alone) was 5%. Further, in series [5] (contemporary trials), the average response rates is on record as < 10% and the median progression-free survival is ≤ 2 months. For the same compound, in series [5] (setting [7]), the average mean survival is reported as 8 months, the average response rate is on record as 18.7% and the “complete remission average rate” value is 5.4%. The “highest induction of apoptosis” value in series [6] was 11%.
